From patent publication US9000022B2 (Exelixis Patent Company LLC, priority 2005, dated 2015)

System: LXRα and/or LXRβ
Assay: Co-transfection assay (LXRE luciferase reporter, CV-1 cells)
Assay type: cell-based, human
Conditions: tested as described in Example 33; IC50 or EC50 for LXRα and/or LXRβ, isoform not specified; read-out: activity (IC50 or EC50 for LXR)
How it was run: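 CV-1 cells transiently co-transfected with full-length human LXRα or LXRβ plus RXRα, an LXRE×1-Tk-luciferase reporter and a β-galactosidase control. Compounds incubated 20 h at 37 °C (≤1% DMSO; screen at 10 μM final); luciferase read after lysis. EC50/IC50 from 8-point half-log curves (4 wells per point, ≥3 experiments); efficacy relative to a reference agonist high control and DMSO.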

| IC50 or EC50 (potency, activation or inhibition) [nM] | SMILES |
| --- | --- |
| < 1000 | CC(C)(O)c1cn(-c2ccc(-c3cccc(S(C)(=O)=O)c3)cc2)c(-c2cccc(Cl)c2)n1 [Example 393, 2-{2-(3-chlorophenyl)-1-[3′-(methyl-sulfonyl)biphenyl-4-yl]-1H-imidazol-4-yl}propan-2-ol] |
| 1000 to 10000 | COc1ccc(-c2ccc(-n3cc(C(C)(C)O)nc3-c3ccccc3C(F)(F)F)cc2)cc1S(C)(=O)=O [Example 399, 2-{1-[4′-(methyloxy)-3′-(methyl-sulfonyl)biphenyl-4-yl]-2-[2-(trifluoromethyl)phenyl]-1H-imidazol-4-yl}propan-2-ol] |
| < 1000 | CC(C)S(=O)(=O)c1cccc(-c2ccc(-n3cc(C(F)(F)F)nc3-c3ccccc3C(F)(F)F)nc2)c1 [Example 372, 5-{3-[(1-methylethyl)sulfonyl]phenyl}-2-{4-(trifluoromethyl)-2-[2-(trifluoro-methyl)phenyl]-1H-imidazol-1-yl}pyridine] |
| < 1000 | Cc1c(Cl)cccc1-c1nc(C(C)(C)O)cn1-c1ccc(-c2ccc(CO)c(S(C)(=O)=O)c2)cc1 [Example 101, 2-(2-(3-chloro-2-methylphenyl)-1-(4′-(hydroxymethyl)-3′-(methyl-sulfonyl)biphenyl-4-yl)-1H-imidazol-4-yl)propan-2-ol] |
| < 1000 | CCS(=O)(=O)c1cccc(-c2ccc(-n3cc(C(=O)NCCO)nc3-c3c(Cl)cccc3Cl)c(Cl)c2)c1 [Example 471, 1-(3-chloro-3′-(ethylsulfonyl)biphenyl-4-yl)-2-(2,6-dichlorophenyl)-N-(2-hydroxyethyl)-1H-imidazole-4-carboxamide] |
| > 10000 | CC(C)(O)c1cn(-c2ccc(-c3cccc(S(C)(=O)=O)c3)cc2)c(-c2cnccc2C(F)(F)F)n1 [Example 37, 2-(1-(3′-(methylsulfonyl)biphenyl-4-yl)-2-(4-(trifluoromethyl)pyridin-3-yl)-1H-imidazol-4-yl)propan-2-ol] |
| < 1000 | Cc1c(Cl)cccc1-c1nc(C(C)(C)O)cn1-c1ccc(-c2cccc(S(C)(=O)=O)c2)cc1F [Example 118, 2-(2-(3-chloro-2-methylphenyl)-1-(3-fluoro-3′-(methylsulfonyl)biphenyl-4-yl)-1H-imidazol-4-yl)propan-2-ol] |
| < 1000 | CCS(=O)(=O)c1cccc(-c2ccc(-n3cc(C(C)(C)O)nc3-c3cccc(Cl)c3Cl)c(F)c2)c1 [Example 114, 2-(2-(2,3-dichlorophenyl)-1-(3′-(ethylsulfonyl)-3-fluorobiphenyl-4-yl)-1H-imidazol-4-yl)propan-2-ol] |
| < 1000 | CCS(=O)(=O)c1cccc(-c2ccc(-n3cc(C(=O)NCC(F)(F)F)nc3-c3c(Cl)cccc3Cl)c(Cl)c2)c1 [Example 462, 1-(3-chloro-3′-(ethylsulfonyl)biphenyl-4-yl)-2-(2,6-dichlorophenyl)-N-(2,2,2-trifluoroethyl)-1H-imidazole-4-carboxamide] |
| 1000 to 10000 | CC(C)(O)c1cn(-c2ccc(-c3ccc(CO)c(S(C)(=O)=O)c3)cc2)c(-c2c(F)cccc2Cl)n1 [Example 100, 2-(2-(2-chloro-6-fluorophenyl)-1-(4′-(hydroxymethyl)-3′-(methyl-sulfonyl)biphenyl-4-yl)-1H-imidazol-4-yl)propan-2-ol] |
| 1000 to 10000 | CCS(=O)(=O)c1cccc(-c2ccc(-c3nc(C(C)(C)O)cn3-c3c(Cl)cccc3Cl)s2)c1 [Example 45, 2-(1-(2,6-dichlorophenyl)-2-(5-(3-(ethylsulfonyl)phenyl)thiophen-2-yl)-1H-imidazol-4-yl)propan-2-ol] |
| 1000 to 10000 | CC(C)(O)c1ccc(-c2ccc(-n3cc(C(C)(C)O)nc3-c3cccc(Cl)c3Cl)cc2)cc1 [Example 477, 2-(2-(2,3-dichlorophenyl)-1-(4′-(2-hydroxypropan-2-yl)biphenyl-4-yl)-1H-imidazol-4-yl)propan-2-ol] |
| < 1000 | CC(C)(O)c1cn(-c2ccc(-c3ccc(CO)c(S(C)(=O)=O)c3)cc2Cl)c(-c2ccccc2C(F)(F)F)n1 [Example 139, 2-(1-(3-chloro-4′-(hydroxymethyl)-3′-(methylsulfonyl)biphenyl-4-yl)-2-(2-(trifluoromethyl)phenyl)-1H-imidazol-4-yl)propan-2-ol] |
| < 1000 | CCS(=O)(=O)c1cccc(-c2ccc(-n3cc(C(C)(C)O)nc3-c3ccccc3C(C)C)c(C)c2)c1 [Example 196, 2-(1-(3′-(ethylsulfonyl)-3-methyl-biphenyl-4-yl)-2-(2-isopropyl-phenyl)-1H-imidazol-4-yl)propan-2-ol] |
| 1000 to 10000 | CCS(=O)(=O)c1cccc(-c2ccc(-n3cc(C(C)(C)O)nc3-c3ccccc3Cl)cc2)c1 [Example 415, 2-{2-(2-chlorophenyl)-1-[3′-(ethylsulfonyl)biphenyl-4-yl]-1H-imidazol-4-yl}propan-2-ol] |
| < 1000 | CC(C)(O)c1cn(-c2ccc(-c3cccc(S(C)(=O)=O)c3)cc2F)c(-c2c(F)cccc2Cl)n1 [Example 134, 2-(2-(2-chloro-6-fluorophenyl)-1-(3-fluoro-3′-(methylsulfonyl)biphenyl-4-yl)-1H-imidazol-4-yl)propan-2-ol] |

| IC50 or EC50 (potency, activation or inhibition) [nM] | SMILES |
| --- | --- |
| 1000 to 10000 | CC(C)(O)c1cn(-c2ccc(-c3cccc(S(C)(=O)=O)c3)cc2)c(-c2ccc(F)cc2)n1 [Example 385, 2-{2-(4-fluorophenyl)-1-[3′-(methylsulfonyl)biphenyl-4-yl]-1H-imidazol-4-yl}propan-2-ol] |
| 1000 to 10000 | CCOC(=O)c1cc(-c2ccc(-n3cc(C(C)(C)O)nc3-c3ccccc3C(F)(F)F)cc2)cc(S(C)(=O)=O)c1 [Example 401, ethyl 4′-{4-(1-hydroxy-1-methylethyl)-2-[2-(trifluoro-methyl)phenyl]-1H-imidazol-1-yl}-5-(methylsulfonyl)biphenyl-3-carboxylate] |
| < 1000 | CCS(=O)(=O)c1cccc(-c2ccc(-n3cc(C(C)(C)O)nc3-c3cccc(Cl)c3C)c(F)c2)c1 [Example 119, 2-(2-(3-chloro-2-methylphenyl)-1-(3′-(ethylsulfonyl)-3-fluorobiphenyl-4-yl)-1H-imidazol-4-yl)propan-2-ol] |
| 1000 to 10000 | FC(F)(F)c1cn(-c2ccc(Br)cn2)c(-c2ccccc2C(F)(F)F)n1 [Example 368, 5-bromo-2-{4-(trifluoromethyl)-2-[2-(trifluoro-methyl)phenyl]-1H-imidazol-1-yl}pyridine] |
| 1000 to 10000 | Cc1cc(-c2ccc(-n3cc(C(C)(C)O)nc3-c3c(Cl)cccc3Cl)cc2)cc(S(C)(=O)=O)c1 [Example 106, 2-(2-(2,6-dichlorophenyl)-1-(′3-methyl-5′-(methyl-sulfonyl)biphenyl-4-yl)-1H-imidazol-4-yl)propan-2-ol] |
| < 1000 | CCS(=O)(=O)c1cccc(-c2ccc(-n3cc(C(C)(C)O)nc3-c3ccccc3C(F)(F)F)c(Cl)c2)c1 [Example 136, 2-(1-(3-chloro-3′-(ethyl-sulfonyl)biphenyl-4-yl)-2-(2-(trifluoromethyl)phenyl)-1H-imidazol-4-yl)propan-2-ol] |
| < 1000 | CS(=O)(=O)c1cccc(-c2ccc(-n3cc(C(F)(F)F)nc3-c3ccccc3C(F)(F)F)cc2)c1 [Example 364, 1-[3′-(methylsulfonyl)biphenyl-4-yl]-4-(trifluoromethyl)-2-[2-(trifluoro-methyl)phenyl]-1H-imidazole] |
| < 1000 | CCS(=O)(=O)c1cccc(-c2ccc(-n3cc(C(C)(C)O)nc3-c3cccc(F)c3Cl)cc2)c1 [Example 95, 2-(2-(2-chloro-3-fluorophenyl)-1-(3′-(ethylsulfonyl)biphenyl-4-yl)-1H-imidazol-4-yl)propan-2-ol] |
| < 1000 | Cc1cc(-c2cccc(S(C)(=O)=O)c2)ccc1-n1cc(C(=O)NCC(F)(F)F)nc1-c1ccccc1C(C)C [Example 89] |
| < 1000 | CCc1cc(-c2cccc(S(C)(=O)=O)c2)ccc1-n1cc(C(C)(C)O)nc1-c1ccccc1Cl [Example 170, 2-(2-(2-chlorophenyl)-1-(3-ethyl-3′-(methylsulfonyl)biphenyl-4-yl)-1H-imidazol-4-yl)propan-2-ol] |
| 1000 to 10000 | Cc1cc(-c2cccc(S(C)(=O)=O)c2)cc(Cl)c1-n1cc(C(C)(C)O)nc1-c1ccccc1Cl [Example 168, 2-(1-(3-chloro-5-methyl-3′-(methyl-sulfonyl)biphenyl-4-yl)-2-(2-chlorophenyl)-1H-imidazol-4-yl)propan-2-ol] |
| < 1000 | CCS(=O)(=O)c1cccc(-c2ccc(-n3cc(C(C)(C)O)nc3-c3ccccc3Cl)c(Cl)c2)c1 [Example 137, 2-(1-(3-chloro-3′-(ethyl-sulfonyl)biphenyl-4-yl)-2-(2-chlorophenyl)-1H-imidazol-4-yl)propan-2-ol] |
| < 1000 | CCc1ccccc1-c1nc(/C(C)=N/O)cn1-c1ccc(-c2cccc(S(C)(=O)=O)c2)cc1 [Example 71, (E)-1-(2-(2-ethylphenyl)-1-(3′-(methylsulfonyl)biphenyl-4-yl)-1H-imidazol-4-yl)ethanone oxime] |
| < 1000 | Cc1cc(-c2ccc(CO)c(S(C)(=O)=O)c2)ccc1-n1cc(C(C)(C)O)nc1-c1c(C)cccc1Cl [Example 177] |
| < 1000 | CCS(=O)(=O)c1cccc(-c2ccc(-n3cc(C(C)(C)O)nc3-c3c(Cl)cccc3Cl)c(F)c2)c1 [Example 116, 2-(2-(2,6-dichlorophenyl)-1-(3′-(ethylsulfonyl)-3-fluorobiphenyl-4-yl)-1H-imidazol-4-yl)propan-2-ol] |
